Reference: patent US4228239A (priority 1977, dated 1980)
≈ marks a conversion by molar mass, not a printed value.

Key:
Bacillus cereus = assay: Antimicrobial activity, paper disc method; type: cell-based; details: paper disc 8 mm, 0.02 ml of a 300 μg/ml solution, trypticase-soy agar
Procedure: (§1) With trypticase-soy agar (BBL) as an assay medium, the inhibitory concentrations against the microorganisms described below were investigated by the paper disc method. Filter-paper discs (Toyo Seisakusho, thin-type, 8 mm in dia.) each impregnated with 0.02 ml of a 300 μg/ml solution of P-3 were placed on agar plates respectively inoculated with the microorganisms described below. P-3 had no activity against the following bacteria: Escherichia coli, Proteus vulgaris, Proteus mirabilis, Pseudomonas aeruginosa, Staphylococcus aureus, Bacillus subtilis, Bacillus cereus, Klebsiella pneumoniae, Serratia marcescens, and Mycobacterium avium.

Bacillus subtilis = assay: Antimicrobial activity, paper disc method; type: cell-based; details: paper disc 8 mm, 0.02 ml of a 300 μg/ml solution, trypticase-soy agar
Procedure: as §1

Escherichia coli = assay: Antimicrobial activity, paper disc method; type: cell-based; details: paper disc 8 mm, 0.02 ml of a 300 μg/ml solution, trypticase-soy agar
Procedure: as §1

Klebsiella pneumoniae = assay: Antimicrobial activity, paper disc method; type: cell-based; details: paper disc 8 mm, 0.02 ml of a 300 μg/ml solution, trypticase-soy agar
Procedure: as §1

Mycobacterium avium = assay: Antimicrobial activity, paper disc method; type: cell-based; details: paper disc 8 mm, 0.02 ml of a 300 μg/ml solution, trypticase-soy agar
Procedure: as §1

Proteus mirabilis = assay: Antimicrobial activity, paper disc method; type: cell-based; details: paper disc 8 mm, 0.02 ml of a 300 μg/ml solution, trypticase-soy agar
Procedure: as §1

Proteus vulgaris = assay: Antimicrobial activity, paper disc method; type: cell-based; details: paper disc 8 mm, 0.02 ml of a 300 μg/ml solution, trypticase-soy agar
Procedure: as §1

Pseudomonas aeruginosa = assay: Antimicrobial activity, paper disc method; type: cell-based; details: paper disc 8 mm, 0.02 ml of a 300 μg/ml solution, trypticase-soy agar
Procedure: as §1

Serratia marcescens = assay: Antimicrobial activity, paper disc method; type: cell-based; details: paper disc 8 mm, 0.02 ml of a 300 μg/ml solution, trypticase-soy agar
Procedure: as §1

Staphylococcus aureus = assay: Antimicrobial activity, paper disc method; type: cell-based; details: paper disc 8 mm, 0.02 ml of a 300 μg/ml solution, trypticase-soy agar
Procedure: as §1

Talaromyces avellaneus = assay: Growth inhibition of a fungus on an agar plate; type: cell-based; details: Hamigera avellanea, pH 7.0, read-out: minimal inhibitory concentration
Procedure: On the other hand, the growth of a fungus, Talaromyces avellaneus is inhibited by P-3 on an agar plate consisting of 3.5 g disodium hydrogen phosphate, 0.5 g monopotassium dihydrogen phosphate, 5 g yeast extract (Difco), 10 g glucose, 15 g agar, 1000 ml distilled water, pH 7.0. The minimal inhibitory concentration was 3 μg/ml for P-3.

Fusicladium levieri = assay: Activity against microorganisms; type: cell-based
[1] = test system: Helminthosporium sigmoidium var irregulare; assay: Activity against microorganisms; type: cell-based
Pyricularia oryzae = type: cell-based
Cochlioborus miyabeanus = assay: Activity against microorganisms; type: cell-based
Sclerotinia screrotiorum = assay: Activity against microorganisms; type: cell-based
Pellicularia sasakii = assay: Activity against microorganisms; type: cell-based
Trichophyton rubrum = assay: Activity against microorganisms; type: cell-based
Rhodotorula rubra = assay: Activity against microorganisms; type: cell-based
Cryptococcus neoformans = assay: Activity against microorganisms; type: cell-based
P388 leukemia = assay: Antitumour activity upon P388 leukemia in mice; type: in vivo, mouse; details: 0.00625 mg/kg/day, intraperitoneal, 9 consecutive days; 1×10^6 cells/animal i.p. transplanted
Source text: The therapeutic effects of P-3 (dosed intraperito-nearly for 9 consecutive days) upon P388 leukemia in mice (1×10^6 cells/animal, mouse, intra-peritoneally transplanted) was investigated.

[2] = Preliminary acute toxicity test with mice; details: mouse, in vivo, ip, intraperitoneal injection
Solubility = type: physicochemical

Q: What does the source list for COc1cc2cc(c1Cl)N(C)C(=O)CC(OC(=O)C(C)C)C1(C)OC1C(C)C1CC(O)(NC(=O)O1)C(OC)C=CC=C(C)C2 (centres unmarked) [P-3]?
A: activity against bacteria (Bacillus cereus) (Bacillus cereus): no activity; activity against bacteria (Bacillus subtilis) (Bacillus subtilis): no activity; activity against bacteria (Escherichia coli) (Escherichia coli): no activity; activity against bacteria (Klebsiella pneumoniae) (Klebsiella pneumoniae): no activity; activity against bacteria (Mycobacterium avium) (Mycobacterium avium): no activity; activity against bacteria (Proteus mirabilis) (Proteus mirabilis): no activity; activity against bacteria (Proteus vulgaris) (Proteus vulgaris): no activity; activity against bacteria (Pseudomonas aeruginosa) (Pseudomonas aeruginosa): no activity; activity against bacteria (Serratia marcescens) (Serratia marcescens): no activity; activity against bacteria (Staphylococcus aureus) (Staphylococcus aureus): no activity; MIC (Talaromyces avellaneus): 3 µg/mL (≈ 4.72 µM); activity against Fusicladium levieri (Fusicladium levieri): had the activity; activity against Helminthosporium sigmoidium var irregulare [1]: had the activity; activity against Pyricularia oryzae (Pyricularia oryzae): had the activity; activity against Cochlioborus miyabeanus (Cochlioborus miyabeanus): had the activity; activity against Sclerotinia screrotiorum (Sclerotinia screrotiorum): had the activity; activity against Pellicularia sasakii (Pellicularia sasakii): had the activity; activity against Trichophyton rubrum (Trichophyton rubrum): had the activity; activity against Rhodotorula rubra (Rhodotorula rubra): had the activity; activity against Cryptococcus neoformans (Cryptococcus neoformans): had the activity; life-span-extending ratio (P388 leukemia): 168%; LD50 [2]: > 0.313 mg/kg; Solubility (Solubility; acetone): Soluble; Solubility (Solubility; benzene): Sparingly soluble; Solubility (Solubility; chloroform): Soluble; Solubility (Solubility; dimethylsulfoxide): Soluble; Solubility (Solubility; ethanol): Soluble; Solubility (Solubility; ether): Sparingly soluble; Solubility (Solubility; ethyl acetate): Soluble; Solubility (Solubility; hexane): Insoluble; Solubility (Solubility; methanol): Soluble; Solubility (Solubility; petr.ether): Insoluble; Solubility (Solubility; pyridine): Soluble; Solubility (Solubility; tetrahydrofuran): Soluble; Solubility (Solubility; water): Insoluble
